Results from ChEMBL document CHEMBL4610081, “Anti-inflammatory Metabolites from Chaetomium nigricolor” (J Nat Prod, 2020).
Activity calls are given as the source filed them. The calls are words filed in the database; no cut-off is given here.

System: RAW264.7
Assay: Antiinflammatory activity against mouse RAW264.7 cells assessed as inhibition of LPS-induced NO production preincubated for 3 hrs followed by LPS-stimulation and measured after 24 hrs by Griess reagent based assay
Format: functional, cell-based

Row | SMILES | Activity
1 | CC(=O)OCc1ccc(C(=O)O)o1 | inactive
2 | COC(=O)/C=C/C(=O)O | inactive
3 | COC(=O)CCC(=O)OCc1ccc(C(=O)O)o1 | inactive
4 | COc1cc(C)c2c(OC)cc(=O)oc2c1-c1c(OC)cc(C)c2c(OC)cc(=O)oc12 | inactive
5 | COc1cc(OC)c2c(c1)cc(O)c1c(=O)cc(C)oc12 | inactive
